Common to all, as to type: functional
Test [1] relates to Brassica rapa subsp. oleifera. In words: Growth inhibition of Brassica rapa subsp. oleifera assessed as chlorophyll b level at 3 x 10^-4 M after 7 days. Details: scale not given: the % may be the effect or the level left.
In test [2] the test system is Brassica rapa subsp. oleifera. Kind of test: Growth inhibition of Brassica rapa subsp. oleifera assessed as chlorophyll b level at 1 x 10^-4 M after 7 days. Details: scale not given: the % may be the effect or the level left.
Test [3] relates to Brassica rapa subsp. oleifera. Kind of test: Growth inhibition of Brassica rapa subsp. oleifera assessed as chlorophyll a level at 3 x 10^-5 M after 7 days. Details: scale not given: the % may be the effect or the level left.
The subject of test [4] is Brassica rapa subsp. oleifera. Kind of test: Growth inhibition of Brassica rapa subsp. oleifera assessed as chlorophyll a level at 5 x 10^-5 M after 7 days. Details: scale not given: the % may be the effect or the level left.
Test [5] relates to Brassica rapa subsp. oleifera. Kind of test: Growth inhibition of Brassica rapa subsp. oleifera assessed as total chlorophyll level at 5 x 10^-5 M after 7 days. Also noted: scale not given: the % may be the effect or the level left.
Test [6] has as its system Brassica rapa subsp. oleifera. In words: Growth inhibition of Brassica rapa subsp. oleifera assessed as total chlorophyll level at 3 x 10^-5 M after 7 days. Also noted: scale not given: the % may be the effect or the level left.
The subject of test [7] is Brassica rapa subsp. oleifera. Kind of test: Growth inhibition of Brassica rapa subsp. oleifera assessed as total chlorophyll level at 1 x 10^-4 M after 7 days. Also noted: scale not given: the % may be the effect or the level left.
Test [8] concerns Brassica rapa subsp. oleifera. In words: Growth inhibition of Brassica rapa subsp. oleifera assessed as total chlorophyll level at 3 x 10^-4 M after 7 days. Also noted: scale not given: the % may be the effect or the level left.
The test system of test [9] is Brassica rapa subsp. oleifera. In words: Growth inhibition of Brassica rapa subsp. oleifera assessed as root growth at 3 x 10^-5 M after 7 days.
The test system of test [10] is Brassica rapa subsp. oleifera. Kind of test: Growth inhibition of Brassica rapa subsp. oleifera assessed as root growth at 5 x 10^-5 M after 7 days.
For test [11], the system named is Brassica rapa subsp. oleifera. Kind of test: Growth inhibition of Brassica rapa subsp. oleifera assessed as root growth at 1 x 10^-4 M after 7 days.
For test [12], the system named is Brassica rapa subsp. oleifera. In words: Growth inhibition of Brassica rapa subsp. oleifera assessed as root growth at 3 x 10^-4 M after 7 days.
Test [13] relates to Brassica rapa subsp. oleifera. In words: Growth inhibition of Brassica rapa subsp. oleifera assessed as chlorophyll b level at 3 x 10^-5 M after 7 days. Also noted: scale not given: the % may be the effect or the level left.
For test [14], the system named is Brassica rapa subsp. oleifera. In words: Growth inhibition of Brassica rapa subsp. oleifera assessed as chlorophyll b level at 5 x 10^-5 M after 7 days. Also noted: scale not given: the % may be the effect or the level left.
Test [15] concerns Brassica rapa subsp. oleifera. Kind of test: Growth inhibition of Brassica rapa subsp. oleifera assessed as chlorophyll a level at 1 x 10^-4 M after 7 days. Also noted: scale not given: the % may be the effect or the level left.
Test [16] deals with Brassica rapa subsp. oleifera. Kind of test: Growth inhibition of Brassica rapa subsp. oleifera assessed as chlorophyll a level at 3 x 10^-4 M after 7 days. Details: scale not given: the % may be the effect or the level left.

With `O=C([O-])COc1ccc(Cl)cc1Cl.[Na+]`, the Activity in test [1] is given as 1.68%; in test [2], 6.1%; in test [3] it was 17.82%; in [4], 11.51%; in [5], 16.35%; in test [6] it was 25.12%. Besides, the Activity was 18.67% in [7]; 4.82% in test [8]; 2.6 mm in [11]; 2.1 mm in test [12]; 7.32% in [13]; 4.84% in test [14]. Also, the Activity in [15] came to 12.57%; in test [16] it was 3.16%. Also, the Root length in test [9] is 3.3 mm; in test [10], 3.1 mm.
